Series [1] is described as follows: Stability of fenoldopam in solution at different pH values (HPLC, UV detector 225 nm). In kind it is physicochemical. The protocol:
In order to evaluate the stability of fenoldopam in solutions maintained at various pHs above 4 and further solutions that were further adjusted back to an acidic pH, the following experiment was conducted. Fenoldopam mesylate was first dissolved in buffer phosphate at pH 2.5, in a concentration of 0.1 mg/mL (sample A). The solution was then divided into 5 samples:
Sample A: remains at pH 2.5
Sample B: pH was adjusted to pH 3.6 with NaOH.
Sample C: pH was adjusted to pH 6.6 with NaOH.
Sample D: pH was adjusted to pH 7.2 with NaOH.
Sample E: pH was adjusted to pH 9.3 with NaOH.
All samples were then analyzed by HPLC and UV detector at 225 nm. Table 1 represents the results obtained by the HPLC analysis conducted with the different fenoldopam samples.

A short description of series [2]: Fenoldopam stability in solutions at different pH after 72 hours (Mass spectrometry). In kind it is physicochemical. As for the experimental part: FIGS. 1a-1e depict the effect of pH on fenoldopam stability. FIGS. 1a-e depict fenoldopam stability in solutions at different pH levels as determined by Mass Spectra (MS). Fenoldopam samples at a pH of 2.5 (FIG. 1a) and samples which were adjusted to a pH of 3.6 (FIG. 1b), 6.6 (FIG. 1c) and 7.2 (FIG. 1d) with NaOH were maintained for 72 hours, after which MS analysis was performed. FIG. 1e depicts the possible degradation products of fenoldopam obtained following exposure to a pH above 4.
Additional fenoldopam samples (Samples A3-D3) were maintained at a pH of 2.5, 3.6, 6.6 and 7.2 without adjustment back to pH 2.5 and were analyzed after 72 hours by HPLC at 225 nm and Mass spectrometry (MS).

In series [3] the test system is IL-17. The experiment in a line: First animal study: IL-17 in skin homogenates (ELISA). In kind it is in vivo, BALB/c mice. The text has this: (§1) The effect of topical compositions on the treatment of psoriasis has been tested in two animal studies. In both studies, typical features of psoriasis, namely erythema, scaling, and skin thickness, were induced by the application of 5% w/w imiquimod (IMQ) cream on the dorsal skin of BALB/c mice over a period of 6 consecutive days. Animals that developed psoriasis-like symptoms were used for studying the efficacy of the fenoldopam topical compositions. In the fenoldopam-treated groups, the animals received imiquimod only for the first two days. From the third day of the study, the animals received imiquimod and fenoldopam for the next four days. First Animal Study: The different treatment groups of mice used in the first animal study were as following: the SHAM group in the study represents mice which were shaven on the dorsal side without any treatment; negative control group represents the typical psoriatic model induced by imiquimod 5% (IMQ); positive control group represents the mice induced with psoriasis by imiquimod and then treated with the marketed steroid betamethasone valerate (IMQ BMV); and treatment groups represent the mice induced with psoriasis by imiquimod and then treated with a topical dose of 1 mg/cm^2 fenoldopam using different compositions of fenoldopam, such as solution (IMQ FD), water-washable ointment (IMQ WB 45/55), or anhydrous gel (IMQ AG BHT) compositions.
(§2) An IMQ-induced psoriasis model reproduces biochemical and histopathological parameters characteristic of human psoriatic lesions. Topical application of the IMQ cream increased levels of cytokines such as IL-23, TNF-α, and IL-17 in the treated skin tissues. The skin homogenates obtained from mice of different groups were analyzed using ELISA for quantification of IL-17, IL-23, and TNF-α, levels as the selected interleukins are the typical inflammatory markers of psoriasis. […] The effect of fenoldopam was as effective as the reference topical treatment with the marketed steroid.
In general terms: In an ELISA, binding on a coated surface is turned into a signal by an enzyme label.

The subject of series [4] is IL-23. The experiment in a line: First animal study: IL-23 in skin homogenates (ELISA). In kind it is in vivo, BALB/c mice.
Source text: as §1, §2

For series [5], the system named is TNF-α. The experiment in a line: First animal study: TNF-α in skin homogenates (ELISA). In kind it is in vivo, BALB/c mice.
Source text: as §1, §2

The test system of series [6] is IMQ-induced psoriasis model. The experiment in a line: Second animal study: IMQ-induced psoriasis, phenotype and PASI scoring. In kind it is in vivo, BALB/c mice.
Source text: as §1, with “In” for “The effect of topical compositions on the treatment of psoriasis has been tested in two animal studies. In”
(§3) The second animal study was conducted in order to test additional topical compositions of fenoldopam with different strengths (0.01%, 0.1% and 1% of fenoldopam), as well as the effect of systemic administration of fenoldopam. […]

The test system of series [7] is IL-17. The experiment in a line: Second animal study: IL-17 in skin homogenates (ELISA). Type of series: in vivo, BALB/c mice.
Source text: as §1, with “In” for “The effect of topical compositions on the treatment of psoriasis has been tested in two animal studies. In”
as §3
(§4) The skin homogenates obtained from mice of the different groups were analyzed using ELISA for quantification of IL-17, IL-23, TNF-α, and IL-22 levels, as the selected interleukins are the typical inflammatory markers of psoriasis.

The subject of series [8] is IL-23. The experiment in a line: Second animal study: IL-23 in skin homogenates (ELISA). Type of series: in vivo, BALB/c mice.
Source text: as §1, with “In” for “The effect of topical compositions on the treatment of psoriasis has been tested in two animal studies. In”
The second animal study was conducted in order to test additional topical compositions of fenoldopam with different strengths (0.01%, 0.1% and 1% of fenoldopam), as well as the effect of systemic administration of fenoldopam. The different groups of mice used in the second animal study were as following: the SHAM group in the study represents mice which were shaven on the dorsal side without any treatment; negative control group represents the typical psoriatic model induced by imiquimod 5% (IMQ); positive control group represents the mice induced with psoriasis by imiquimod and then treated with the marketed steroid betamethasone valerate (IMQ BMV); and treatment groups represent the mice induced with psoriasis by imiquimod and then treated with a topical dose of various compositions of fenoldopam: water-washable base (IMQ_WB45/55-0.01%, IMQ_WB45/55-0.1%, IMQ_WB45/55-1% or IMQ_WB45/55_1% No citric acid), or oleaginous ointment composition (IMQ_OB 0.01%, IMQ_OB 0.1% or IMQ_OB […]). An additional group of mice received systemic Fenoldopam by intraperitoneal injection (IMQ_FD_IP).
as §4

The test system of series [9] is TNF-α. The experiment in a line: Second animal study: TNF-α in skin homogenates (ELISA). In kind it is in vivo, BALB/c mice.
Source text: as §1, with “In” for “The effect of topical compositions on the treatment of psoriasis has been tested in two animal studies. In”
as §3, §4

A further series deals with IL-22. The experiment in a line: Second animal study: IL-22 in skin homogenates (ELISA). In kind it is in vivo, BALB/c mice.
Source text: as §1, with “In” for “The effect of topical compositions on the treatment of psoriasis has been tested in two animal studies. In”
as §3, §4

The text below walks through data of patent US11612607B2, “Fenoldopam topical formulations for treating skin disorders” (TARO PHARMACEUTICAL INDUSTRIES LTD., priority 2016, dated 2023).

SMILES strings stand for the structures. Where “and” joins values, the source holds several entries; their conditions need not be identical. Equal values may be shown once.

For the molecule `Oc1ccc(C2CNCCc3c2cc(O)c(O)c3Cl)cc1` (centres unmarked) [Fenoldopam, 6-chloro-2,3,4,5-tetrahydro-1-(4-hydroxyphenyl)-[1H]-3-benzazepine-7,8-diol, methane sulfonate], the “RRT-0.9 (%)” value came to 0.9% in [1] (Sample B1: pH 3.6 for 12 hours, then back to pH 2.5 for additional 5 hours); 0.9% in series [1] (Sample B2: pH 3.6 for 12 hours, then back to pH 2.5 for additional 48 hours); 1.0% in [1] (Sample B3: pH 3.6 for 72 hours without adjustment back to pH 2.5); 0.9% in [1] (Sample B: pH 3.6 for 12 hours, 0.1 mg/mL, room temperature, protected from light); 4.0% in series [1] (Sample C1: pH 6.6 for 12 hours, then back to pH 2.5 for additional 5 hours); 4.0% in [1] (Sample C2: pH 6.6 for 12 hours, then back to pH 2.5 for additional 48 hours). Also, the “RRT-0.9 (%)” value amounted to 17.5% in series [1] (Sample C3: pH 6.6 for 72 hours without adjustment back to pH 2.5); 4.9% in series [1] (Sample C: pH 6.6 for 12 hours); 11.6% in [1] (Sample D1: pH 7.2 for 12 hours, then pH 2.5 for additional 5 hours); 11.5% in [1] (Sample D2: pH 7.2 for 12 hours, then back to pH 2.5 for additional 48 hours); 49.8% in series [1] (Sample D3: pH 7.2 for 72 hours without adjustment back to pH 2.5); 15.8% in series [1] (Sample D: pH 7.2 for 12 hours). Besides, the fenoldopam degraded in [1] (Sample C3: 72 hours at pH 6.6) was 18%; in series [1] (Sample D3: 72 hours at pH 7.2), 50%. For the same molecule, the “Fenoldopam, (%)” value in series [1] (Sample E1: pH 9.3 for 12 hours, then pH 2.5 for additional 5 hours) is on record as 2%; in series [1] (Sample E2: pH 9.3 for 12 hours, then pH 2.5 for additional 48 hours), 2.2%; in [1] (Sample E3: pH 9.3 for 72 hours without adjustment back to pH 2.5), “No main peak”; in series [1] (Sample E: pH 9.3 for 12 hours), “No main peak”. Besides, the RRT-0.9 impurity entry in series [1] (Samples B, B1, B2 (12 hours at pH 3.6, then pH 2.5) and B3 (72 hours at pH 3.6)) is listed as “less than 1%”; in series [1] (Samples C, C1 and C2 (12 hours at pH 6.6 followed by adjustment back to pH 2.5)) it was 4%. In addition, the “minor peak of fenoldopam” value in [1] (Samples E, E1, E2 and E3 (pH 9.3)) is on record as around 2%. The Appearance of solution entry is recorded as “pH 3.6 - Clear” in series [1] (pH 3.6), “pH 6.6 - yellowish” in series [1] (pH 6.6), “pH 7.2 - yellowish” in [1] (pH 7.2) and “pH 9.3- yellowish” in series [1] (pH 9.3). Besides, the “Stability by MS analysis” value is “stable after 3 days and showed a single peak” in [2] (pH of 2.5 and 3.6, after 3 days); “formation of several peaks after 3 days” in [2] (pH of 6.6 and 7.2, after 3 days). Moreover, in the series with IL-17 [3] (vs. IMQ group), the “Level of IL-17” value was “inhibited”. Further, the “Level of IL-23” value with IL-23 [4] (vs. IMQ group) is listed as “inhibited”. Besides, the “Level of TNF-α” value with TNF-α [5] (vs. IMQ group) was “inhibited”.

Take `CC(C)Cn1cnc2c(N)nc3ccccc3c21` [IMQ, imiquimod]: the “Elevation of IL-17 levels compared to the SHAM group” value with IL-17 [3] (first animal study) stood at 5 fold. Besides, the “Increase of IL-23 levels compared to SHAM group” value in the series with IL-23 [4] (first animal study) was determined as 2.30 fold. Moreover, the “Increase in the TNF-α level compared to the SHAM group” value in the series with TNF-α [5] (first animal study) is listed as 8.42 fold. The “PASI score for erythema, scaling, and thickness on the 6th day” value in series [6] is “about 3”. The “Fold difference in IL-17 levels (↑, vs. Sham)” value in the series with IL-17 [7] is 1.63 fold and 1.63 ↑ fold. Besides, the “Fold difference in IL-23 levels (↑, vs. Sham)” value in the series on IL-23 [8] is 1.55 fold and 1.55 ↑ fold. The “Fold difference in TNF-α levels (↑, vs. Sham)” value in the series with TNF-α [9] was 2.08 fold and 2.08 ↑ fold. For the same molecule, the “Fold difference in IL-22 levels (↑, vs. Sham)” value with IL-22 was 1.36 fold and 1.36 ↑ fold.
